According to publication PMC7575490 (Investigational New Drugs, 2020):
Values after ≈ are worked out from the molar mass of the structure shown.

Tests used:
[1] = Part 2 three-period crossover pharmacokinetics / relative bioavailability of A, B, C; assay type: in vivo, human
Description: This was a randomized, positive control, open, single-center study with a three-cycle crossover design in healthy Chinese subjects. […] The wash-out period was 7 days. The method employed for tablet administration was consistent with that in Part 1. […] After the suspension was comsumed by subjects,the container was rinsed with 40, 80, and 80 mL of water in turn and took them down.

ErbB2 = system: ErbB2; parameters: method as in PMID 27902470; conditions: previous pharmacodynamic study; read-out: IC50, ErbB2 inhibition; cited from earlier work
EGFR = system: EGFR; parameters: method as in PMID 27902470; conditions: previous pharmacodynamic study; read-out: IC50, EGFR inhibition; cited from earlier work
[2] = cited from earlier work
[3] = Part 1 single ascending dose pharmacokinetics in healthy Chinese subjects; conditions: for AUC0-t / AUC0-∞ / Cmax / MRT0-t / MRT0-∞ / V/F / t1/2 / λz / Tmax: analyte selatinib; for AUC0-t / AUC0-∞ / Cmax / MRT0-t / MRT0-∞ / V/F / t1/2 / λz: mean ± SD; for Tmax: median (min-max)
Description: This was a single-center, randomized, double-blind, placebo-controlled, single ascending study involving healthy Chinese subjects. […] Investigators and subjects were blinded to the group allociations. Treatment identity was concealed by providing drug doses and placebo of identical appearance and in identical packageing. The starting dose was calculated according to the no observed adverse effect level (NOAEL) for animals.[[[25], [26]^] […] The starting dose should be 1/10 of the human NOAEL(i.e., starting dose was 50 or 72 mg). This dose was used as a threshold guide for dose escalations. To minimize risk while providing some inhibitory effects, 50 mg was recommended for use as the starting dose. Dose escalation was designed according to the modified-Fibonacci sequence. A total of 7 dose groups were included. […] Each group consisted of 50% males and females. In addition to the 500 mg group, 2 subjects in each group were administered a single dose of placebo, one for each gender. Only 2 subjects were initially enrolled in all dose groups. Follow-up subjects were enrolled on the premise that the drug was safely tolerated at the administration dose. When all subjects in the current dose group completed the trial and this dose was deemed as tolerable, the next dose group was initiated.
Tablets were administered with 240 mL of tap water at ambient temperature. Consumption of additional water was not permitted within 1 h before and after drug administration. Light meals were served at 4 and 10 h after each dose, with identical standardized diets provided across all dosing periods.
Blood samples were collected into heparinized vacutainer tubes and gently mixed. Thereafter,plasma was separated by centrifugation (3000 rpm at 4 °C for 10 min) within 1 h of sample collection and stored frozen at −80 °C prior to analysis.
A P value<0.05 was considered to indicate statistical significance. […] Further, the logarithm of the dose and the regression coefficient and its 95%CI were calculated.

[4] = Part 2, average bioequivalence, logarithmic transformation, single 500 mg dose, suspension B vs tablets A, analyte as labelled
[5] = Part 2, single 500 mg dose of A (selatinib ditosilate tablets), n = 6, analyte as labelled, mean ± SD
[6] = Part 2, single 500 mg dose of B (selatinib ditosilate dry suspension), n = 6, analyte as labelled, mean ± SD
[7] = Part 1, across single doses 50–500 mg
[8] = Part 1, single 50 mg dose of selatinib (n = 4)
[9] = Part 1, single 100 mg dose of selatinib (n = 10)
[10] = Part 1, single 200 mg dose of selatinib (n = 10)
[11] = Part 1, single 250 mg dose of selatinib (n = 8)
[12] = Part 1, single 300 mg dose of selatinib (n = 10)
[13] = Part 1, single 350 mg dose of selatinib (n = 6)
[14] = Part 1, single 500 mg dose of selatinib (n = 4)

CS(=O)(=O)CCNCc1ccc(-c2ccc3ncnc(Nc4ccc(OCc5cccc(F)c5)c(Cl)c4)c3c2)o1 [lapatinib, reference compound]
λz ([1]; Part 2, single 500 mg dose of C (lapatinib ditosylate tablets), n = 6, mean ± SD): 5.70 ± 1.26 ×10^−2 /h
AUC0-t ([1]; male, human, in vivo, 500 mg): 5520 ± 2190 ng·h/mL
AUC(0-inf) ([1]; male, human, in vivo, 500 mg): 5540 ± 2200 ng·h/mL
Cmax ([1]; male, human, in vivo, 500 mg): 400 ± 144 ng/mL
MRT inf ([1]; male, human, in vivo, 500 mg): 15.6 ± 2.76 h
Tmax ([1]; male, human, in vivo, 500 mg): 4.0 (2.0–5.0) h
half-life ([1]; male, human, plasma, oral, 500 mg): 12.7 ± 3.05 h
aqueous solubility [2]: 7 µg/mL (≈ 12 µM)

C[S+]([O-])CCNCc1ccc(-c2ccc3ncnc(Nc4ccc(OCc5cccc(F)c5)c(Cl)c4)c3c2)o1 (stereo not shown) [selatinib]
B/A% of AUC0-t [1, 4]: 101.06%
B/A% of AUC0-∞ [1, 4]: 101.09%
B/A% of Cmax [1, 4]: 94.53%
AUC0-t [1, 5]: 9280 ± 3800 ng·h/mL
AUC0-∞ [1, 5]: 9400 ± 3910 ng·h/mL
Cmax [1, 5]: 601 ± 242 ng/mL
MRT0-∞ [1, 5]: 19.2 ± 3.16 h
t1/2 [1, 5]: 15.6 ± 2.47 h
λz [1, 5]: 4.52 ± 0.682 ×10^−2 /h
Tmax ([1]; Part 2, single 500 mg dose of A (selatinib ditosilate tablets), n = 6, analyte as labelled, median (min-max)): 5.0 (4.0–6.0) h
V/F ([1]; Part 2, single 500 mg dose of A (selatinib ditosilate tablets), n = 6, mean ± SD): 1370 ± 586 L
AUC0-t [1, 6]: 8780 ± 1350 ng·h/mL
AUC0-∞ [1, 6]: 8890 ± 1410 ng·h/mL
Cmax [1, 6]: 556 ± 191 ng/mL
MRT0-∞ [1, 6]: 18.9 ± 2.87 h
t1/2 [1, 6]: 16.2 ± 1.87 h
λz [1, 6]: 4.32 ± 0.453 ×10^−2 /h
Tmax ([1]; Part 2, single 500 mg dose of B (selatinib ditosilate dry suspension), n = 6, analyte as labelled, median (min-max)): 4.5 (3.0–6.0) h
V/F ([1]; Part 2, single 500 mg dose of B (selatinib ditosilate dry suspension), n = 6, mean ± SD): 1330 ± 192 L
mean selatinib peak plasma concentration [3, 7]: 69.4 to 494 ng/mL
median peak time [3, 7]: 3.5 to 4.5 h
AUC0-t [3, 8]: 969 ± 161 ng·h/mL
AUC0-∞ [3, 8]: 983 ± 165 ng·h/mL
Cmax [3, 8]: 69.4 ± 18.5 ng/mL
MRT0-t [3, 8]: 15.2 ± 3.1 h
MRT0-∞ [3, 8]: 16.4 ± 3.5 h
V/F [3, 8]: 1193.3 ± 321.8 L
t1/2 [3, 8]: 15.8 ± 2.98 h
λz [3, 8]: 4.49 ± 0.788 ×10^−2 1/h
Tmax [3, 8]: 4.0 (3.0–6.0) h
AUC0-t [3, 9]: 2664 ± 1039 ng·h/mL
AUC0-∞ [3, 9]: 2688 ± 1058 ng·h/mL
Cmax [3, 9]: 178 ± 48.8 ng/mL
MRT0-t [3, 9]: 15.9 ± 2.4 h
MRT0-∞ [3, 9]: 16.7 ± 2.8 h
V/F [3, 9]: 853.2 ± 279.8 L
t1/2 [3, 9]: 14.3 ± 2.58 h
λz [3, 9]: 4.98 ± 0.917 ×10^−2 1/h
Tmax [3, 9]: 4.0 (4.0–6.0) h
AUC0-t [3, 10]: 3708 ± 1465 ng·h/mL
AUC0-∞ [3, 10]: 3735 ± 1480 ng·h/mL
MRT0-t [3, 10]: 16.4 ± 1.7 h
MRT0-∞ [3, 10]: 17.1 ± 1.9 h
V/F [3, 10]: 1247.0 ± 522.4 L
t1/2 [3, 10]: 14.0 ± 1.79 h
λz [3, 10]: 5.01 ± 0.651 ×10^−2 1/h
Tmax [3, 10]: 4.5 (4.0–8.0) h
AUC0-t [3, 11]: 5319 ± 3248 ng·h/mL
AUC0-∞ [3, 11]: 5368 ± 3274 ng·h/mL
Cmax [3, 11]: 329 ± 211 ng/mL
MRT0-t [3, 11]: 17.1 ± 1.5 h
MRT0-∞ [3, 11]: 18.0 ± 1.8 h
V/F [3, 11]: 1393.7 ± 861.8 L
t1/2 [3, 11]: 15.3 ± 1.67 h
λz [3, 11]: 4.58 ± 0.495 ×10^−2 1/h
Tmax [3, 11]: 4.0 (4.0–5.0) h
AUC0-t [3, 12]: 5904 ± 2428 ng·h/mL
AUC0-∞ [3, 12]: 5958 ± 2461 ng·h/mL
Cmax [3, 12]: 352 ± 147 ng/mL
MRT0-t [3, 12]: 17.4 ± 2.3 h
MRT0-∞ [3, 12]: 18.3 ± 2.6 h
V/F [3, 12]: 1380.6 ± 1006.1 L
t1/2 [3, 12]: 15.1 ± 1.09 h
λz [3, 12]: 4.60 ± 0.334 ×10^−2 1/h
Tmax [3, 12]: 4.5 (4.0–6.0) h
AUC0-t [3, 13]: 7072 ± 2001 ng·h/mL
AUC0-∞ [3, 13]: 7115 ± 1995 ng·h/mL
Cmax [3, 13]: 494 ± 156 ng/mL
MRT0-t [3, 13]: 16.0 ± 2.6 h
MRT0-∞ [3, 13]: 16.7 ± 3.0 h
V/F [3, 13]: 1059.1 ± 425.1 L
t1/2 [3, 13]: 13.8 ± 2.19 h
λz [3, 13]: 5.14 ± 0.765 ×10^−2 1/h
Tmax [3, 13]: 4.5 (2.0–5.0) h
AUC0-t [3, 14]: 7142 ± 2463 ng·h/mL
AUC0-∞ [3, 14]: 7191 ± 2482 ng·h/mL
Cmax [3, 14]: 486 ± 144 ng/mL
MRT0-t [3, 14]: 15.5 ± 0.5 h
MRT0-∞ [3, 14]: 16.2 ± 0.5 h
V/F [3, 14]: 1650.8 ± 652.2 L
t1/2 [3, 14]: 14.8 ± 0.152 h
λz [3, 14]: 4.68 ± 0.0482 ×10^−2 1/h
Tmax [3, 14]: 3.5 (2.0–5.0) h
linearity of pharmacokinetics ([3]; dose range of 50–500 mg): conformed with linear pharmacokinetics
